Tests used:
[1] = system: Desulfotomaculum nigrificans (ATCC 19858); assay: D. nigrificans growth after biocide exposure in 0.1 wt % polyacrylamide; type: cell-based; parameters: key to D. nigrificans Growth Results / D. nigrificans Growth Results, Neutral Control: positive (+); negative (NEG)
Procedure: Example 2 illustrates the biocidal efficacy of peracetic acid, compared with glutaraldehyde, against another strain of sulfur-reducing bacteria, Desulfotomaculum nigrificans, present in an aqueous solution also containing 0.1 wt % polyacrylamide polymer. A range of peracetic acid and glutaraldehyde concentrations were evaluated for biocidal efficacy: 1, 5, 10, 25, 50, 75, 100, 200 and 300 ppm peracetic acid and the same concentrations for glutaraldehyde (except that 300 ppm was omitted).
The dilute aqueous polyacrylamide was prepared using an aqueous 50 wt % polyacrylamide solution (Sigma-Aldrich, St. Louis, Mo.) and diluting the polyacrylamide with deionized water to obtain 0.1 wt % polyacrylamide in water. The peracetic acid was Vigor Ox® SP-15 antimicrobial agent, containing about 15-17 wt % peracetic acid, 9-11 wt % hydrogen peroxide and 33-38 wt % acetic acid in water (FMC Corporation, Philadelphia, Pa.), and this peracetic acid solution was diluted to the desired concentration within the range 1 to 300 ppm peracetic acid for the various evaluations. The glutaraldehyde used in this Example 2 was a 50 wt % glutaraldehyde solution in water (Alfa Aesar, Ward Hill, Mass.), diluted with deionized water to the desired concentration within the range 1 to 200 ppm for the evaluations.
The bacterial strain used in this Example 2 was the sulfur-reducing bacterium Desulfotomaculum nigrificans (ATCC 19858 from American Type Culture Collection, Manassas, Va.). A working inoculum for each of the three studies described below was prepared by the following procedure. Baar's medium for sulfate reducers was inoculated with D. nigrificans from a cryogenic tube, grown at 50° C. anaerobically for a period sufficient to observe good growth of the culture (evident by blackening of the tube), between 2-7 days. This D. nigrificans culture was used as the working inoculum for each of the studies described below.
The methodology used in this Example 2 was as follows. A sterilized screw-cap tube containing 9.5-10 ml 0.1 wt % polyacrylamide was dosed with an appropriate amount of peracetic acid (or glutaraldehyde) to provide the desired peracetic acid (or glutaraldehyde) concentration (e.g., 1 to 300 ppm peracetic acid) in 10 ml 0.1 wt % polyacrylamide required for the study. The tubes were then vortex mixed and 0.1 ml D. nigrificans inoculum was added and again vortex mixed. The initial inoculation level was estimated as about 2.6×10^6 CFU/tube. Timing of the exposure period (e.g., 1 minute to 1 day) was begun when the D. nigrificans inoculum was added.
After the exposure period had elapsed, 1 ml of the treated mixture was added to a second tube containing 9 ml of Dey-Engley (D/E) neutralizing broth and vortex mixed. After about 5-8 minutes had elapsed, 1 ml of the neutralized solution was added to yet another tube containing 9 ml of Baar's modified medium for sulfate reducers. This tube was vortex mixed and then incubated anaerobically at 50° C., with the screw cap loosened, using an AnaeroPack (Mitsubishi Gas Chemical America, Inc., New York, N.Y.) in an anaerobic jar.
Growth controls were also carried out in the studies of this Example 2, using the following procedure. A screw-cap tube containing 10 ml of 0.1 wt % polyacrylamide was inoculated with 0.1 ml of D. nigrificans culture and then diluted in D/E neutralizing broth after the exposure period, vortex mixed, and then diluted in Baar's medium as described above. The control tubes were incubated at 50° C., also as described above, and monitored for growth after two days.
Neutralizing controls were also carried out for the peracetic acid and glutaraldehyde treatment agents to confirm that D/E neutralizing broth (which contains sodium bisulfite and […] among its neutralizing agents) was capable of neutralizing either peracetic acid or glutaraldehyde at the highest concentration used in each study. […]

[2] = system: Desulfovibrio desulfuricans (vulgaris) (ATCC 7757); assay: Biocidal efficacy against sulfur-reducing bacteria in 0.1 wt % polyacrylamide (colony population analysis, CFU); type: cell-based; details: not a side-by-side comparative study
Procedure: Example 1 illustrates the biocidal efficacy of peracetic acid, compared with glutaraldehyde, against a strain of sulfur-reducing bacteria, Desulfovibrio desulfuricans (vulgaris), present in an aqueous solution also containing 0.1 wt % polyacrylamide polymer. A range of peracetic acid and glutaraldehyde concentrations were evaluated for biocidal efficacy: 5, 10, 30, 150 and 300 ppm peracetic acid and 25 and 500 ppm glutaraldehyde.
The dilute aqueous polyacrylamide was prepared using a 50 wt % polyacrylamide solution in water, with the polyacrylamide having an average molecular weight ˜10,000 (Aldrich No. 434949, Sigma-Aldrich, St. Louis, Mo.). The peracetic acid was Vigor Ox® SP-15 antimicrobial agent, containing about 15-17 wt % peracetic acid, 9-11 wt % hydrogen peroxide and 33-38 wt % acetic acid in water (FMC Corporation, Philadelphia, Pa.), and this peracetic acid solution was diluted to 5, 10, 30, 150 and 300 ppm peracetic acid for the various evaluations. The glutaraldehyde used in this Example 1 was a 25 wt % glutaraldehyde solution in water (Sigma-Aldrich No. G4004, Sigma-Aldrich, St. Louis, Mo.), diluted to either 25 or 500 ppm for the evaluations. […]
Peracetic acid and glutaraldehyde were next evaluated for biocidal efficacy against the sulfur-reducing bacterium Desulfovibrio vulgaris. […]

[3] = at 25° C.; cited from earlier work
[4] = first study, 1 ppm, 1 minute exposure
[5] = first study, 1 ppm, 1 hour exposure
[6] = first study, 1 ppm, 1 day exposure
[7] = first study, 5 ppm, 1 minute exposure
[8] = first study, 5 ppm, 1 hour exposure
[9] = first study, 5 ppm, 1 day exposure
[10] = first study, 10 ppm, 1 minute exposure
[11] = first study, 10 ppm, 1 hour exposure
[12] = first study, 10 ppm, 1 day exposure
[13] = first study, 25 ppm, 1 minute exposure
[14] = first study, 25 ppm, 1 hour exposure
[15] = first study, 25 ppm, 1 day exposure
[16] = first study, 50 ppm biocide neutralized in D/E neutralizing broth before inoculation
[17] = first study, 50 ppm, 1 minute exposure
[18] = first study, 50 ppm, 1 hour exposure
[19] = first study, 50 ppm, 1 day exposure
[20] = second study, 50 ppm, 10 minutes exposure
[21] = second study, 50 ppm, 1 hour exposure
[22] = second study, 50 ppm, 1 day exposure
[23] = second study, 75 ppm, 10 minutes exposure
[24] = second study, 75 ppm, 1 hour exposure
[25] = second study, 75 ppm, 1 day exposure
[26] = second study, 100 ppm, 10 minutes exposure
[27] = second study, 100 ppm, 1 hour exposure
[28] = second study, 100 ppm, 1 day exposure
[29] = second study, 200 ppm biocide neutralized in D/E neutralizing broth before inoculation
[30] = second study, 200 ppm, 10 minutes exposure
[31] = second study, 200 ppm, 1 hour exposure
[32] = second study, 200 ppm, 1 day exposure

Peracetic acid
about 8.2: pKa [3]
+ and NEG: D. nigrificans Growth Results ([1]; third study, 100 ppm, 30 minutes exposure)
exhibited biocidal control: biocidal control of D. nigrificans ([1]; third study, ten minutes, 300 ppm)
+: D. nigrificans Growth Results [1, 4] | D. nigrificans Growth Results [1, 5] | D. nigrificans Growth Results [1, 6] | D. nigrificans Growth Results [1, 7] | D. nigrificans Growth Results [1, 8] | D. nigrificans Growth Results [1, 9] | D. nigrificans Growth Results [1, 10] | D. nigrificans Growth Results [1, 11] | D. nigrificans Growth Results [1, 12] | D. nigrificans Growth Results [1, 13] | D. nigrificans Growth Results [1, 14] | D. nigrificans Growth Results, Neutral Control [1, 16] | D. nigrificans Growth Results [1, 17] | D. nigrificans Growth Results [1, 20] | D. nigrificans Growth Results [1, 21] | D. nigrificans Growth Results [1, 23] | D. nigrificans Growth Results [1, 26] | D. nigrificans Growth Results, Neutral Control [1, 29] | D. nigrificans Growth Results [1, 30] | D. nigrificans Growth Results ([1]; third study, 100 ppm, 10 minutes exposure) | D. nigrificans Growth Results ([1]; third study, 200 ppm, 10 minutes exposure) | D. nigrificans Growth Results, Neutral Control ([1]; third study, 300 ppm peracetic acid neutralized in D/E neutralizing broth before inoculation)
demonstrated biocidal activity: biocidal activity against D. nigrificans ([1]; second study, 1 hour exposure, 75 ppm, 100 ppm (1 of 2 replicates), 200 ppm) | biocidal activity against D. nigrificans ([1]; third study, 30 minutes, 100 ppm (2 of 3 replicates), 200 ppm, 300 ppm)
at least equivalent in performance: biocidal efficacy against D. vulgaris compared with the glutaraldehyde treatment [2]
NEG: D. nigrificans Growth Results [1, 15] | D. nigrificans Growth Results [1, 19] | D. nigrificans Growth Results [1, 22] | D. nigrificans Growth Results [1, 24] | D. nigrificans Growth Results [1, 25] | D. nigrificans Growth Results [1, 28] | D. nigrificans Growth Results [1, 31] | D. nigrificans Growth Results [1, 32] | D. nigrificans Growth Results ([1]; third study, 200 ppm, 30 minutes exposure) | D. nigrificans Growth Results ([1]; third study, 200 ppm, 60 minutes exposure) | D. nigrificans Growth Results ([1]; third study, 300 ppm, 10 minutes exposure) | D. nigrificans Growth Results ([1]; third study, 300 ppm, 30 minutes exposure)
NEG and +: D. nigrificans Growth Results [1, 18] | D. nigrificans Growth Results [1, 27] | D. nigrificans Growth Results ([1]; third study, 100 ppm, 60 minutes exposure) | D. nigrificans Growth Results ([1]; third study, 300 ppm, 60 minutes exposure)
provided biocidal control: biocidal control of D. nigrificans ([1]; first study, 25 ppm and 50 ppm, 1 day exposure) | biocidal control of D. nigrificans ([1]; second study, 50, 75, 100 and 200 ppm, 1 day exposure) | biocidal control of D. nigrificans ([1]; third study, 60 minutes, 100 ppm (2 of 3 replicates), 200 ppm, 300 ppm (2 of 3 replicates))
no biocidal control: biocidal control of D. nigrificans ([1]; first study, 1 ppm, 5 ppm or 10 ppm, any of the exposure times)
did not exhibit biocidal activity: biocidal activity against D. nigrificans ([1]; third study, ten minutes, 100 and 200 ppm)
some biocidal activity: biocidal activity against D. nigrificans ([1]; first study, 50 ppm, one hour, NEG for one of the two replicates)
no biocidal activity: biocidal activity against D. nigrificans ([1]; second study, 10 minutes exposure, any of the concentrations)

O=CCCCC=O [Glutaraldehyde, glutaraldehyde, reference compound]
no biocidal control: biocidal control of D. nigrificans ([1]; first study, any of the concentrations (1 to 50 ppm) or exposure times (1 minute, 1 hour, 1 day)) | biocidal control of D. nigrificans ([1]; second study, any of the concentrations (50 to 200 ppm) or exposure times (10 minutes, 1 hour, 1 day))
+: D. nigrificans Growth Results [1, 4] | D. nigrificans Growth Results [1, 5] | D. nigrificans Growth Results [1, 6] | D. nigrificans Growth Results [1, 7] | D. nigrificans Growth Results [1, 8] | D. nigrificans Growth Results [1, 9] | D. nigrificans Growth Results [1, 10] | D. nigrificans Growth Results [1, 11] | D. nigrificans Growth Results [1, 12] | D. nigrificans Growth Results [1, 13] | D. nigrificans Growth Results [1, 14] | D. nigrificans Growth Results [1, 15] | D. nigrificans Growth Results, Neutral Control [1, 16] | D. nigrificans Growth Results [1, 17] | D. nigrificans Growth Results [1, 18] | D. nigrificans Growth Results [1, 19] | D. nigrificans Growth Results [1, 20] | D. nigrificans Growth Results [1, 21] | D. nigrificans Growth Results [1, 22] | D. nigrificans Growth Results [1, 23] | D. nigrificans Growth Results [1, 24] | D. nigrificans Growth Results [1, 25] | D. nigrificans Growth Results [1, 26] | D. nigrificans Growth Results [1, 27] | D. nigrificans Growth Results [1, 28] | D. nigrificans Growth Results, Neutral Control [1, 29] | D. nigrificans Growth Results [1, 30] | D. nigrificans Growth Results [1, 31] | D. nigrificans Growth Results [1, 32]

— patent publication US9018142B2, “Oil-field biocide method utilizing a peracid” (PeroxyChem LLC, priority 2008, dated 2015)
